Source: ChEMBL document CHEMBL5729353, “Imidazopyridazine and imidazopyridine compounds and uses thereof” (2022)

Biological target: T1, Activin receptor type-1 (Homo sapiens, UniProt Q04771)
T1 sequence (Q04771 whole entry): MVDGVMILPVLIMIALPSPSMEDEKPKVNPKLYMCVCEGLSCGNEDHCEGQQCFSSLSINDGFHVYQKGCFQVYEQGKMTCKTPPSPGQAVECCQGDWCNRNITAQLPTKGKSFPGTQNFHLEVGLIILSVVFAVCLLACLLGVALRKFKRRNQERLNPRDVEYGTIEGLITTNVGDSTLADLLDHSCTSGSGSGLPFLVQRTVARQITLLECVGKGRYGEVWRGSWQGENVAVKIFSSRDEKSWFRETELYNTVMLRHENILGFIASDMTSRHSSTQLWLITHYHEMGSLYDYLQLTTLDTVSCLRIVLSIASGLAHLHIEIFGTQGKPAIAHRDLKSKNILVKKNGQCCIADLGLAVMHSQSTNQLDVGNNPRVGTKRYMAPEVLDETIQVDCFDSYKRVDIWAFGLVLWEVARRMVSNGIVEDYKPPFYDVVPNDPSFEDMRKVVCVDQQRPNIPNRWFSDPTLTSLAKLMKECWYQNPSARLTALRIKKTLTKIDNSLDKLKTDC
Test: The enzymatic assays were conducted in white 384-well polystyrene plates in a final volume of 8 μL. The inhibitors were serially diluted in DMSO and added to the plate wells prior to addition of the other reaction components. […] The final concentration of DMSO in the assay was 1% and the enzyme concentration was 0.5 nM for ALK2. […] The reaction was incubated at 25° C. for 1 hr and read on a PHERAstar FS plate reader (BMG Labtech). IC50 determination was performed by fitting percent control activity versus the log of the inhibitor concentration using the IDBS XLFit and GraphPad Prism 5.0 software.

With Cc1nn2c(-c3ccnc4cc(-c5ccncc5)ccc34)cnc2cc1-c1cnn(CC2CCNCC2)c1 the IC50 was < 1 nM.
